In ChEMBL document CHEMBL1138103, “Synthesis and antibacterial activity of new fluoroquinolones containing a substituted N-(phenethyl)piperazine moiety” (2006):
Converted amounts (≈) assume the structure as drawn.

Columns and labels:
Type in all cases: functional
[1] = test system: Staphylococcus aureus; assay: microbe, parasite or virus in culture; conditions: ATCC 6538P
Description: Antibacterial activity against Staphylococcus aureus ATCC 6538p by agar-dilution method

[2] = test system: Escherichia coli; assay: microbe, parasite or virus in culture; conditions: ATCC 8739
Description: Antibacterial activity against Escherichia coli ATCC 8739 by agar-dilution method

[3] = test system: Staphylococcus epidermidis; assay: microbe, parasite or virus in culture; conditions: ATCC 12228
Description: Antibacterial activity against Staphylococcus epidermidis ATCC 12228 by agar-dilution method

[4] = test system: Klebsiella pneumoniae; assay: microbe, parasite or virus in culture; conditions: ATCC 10031
Description: Antibacterial activity against Klebsiella pneumoniae ATCC 10031 by agar-dilution method

[5] = test system: Pseudomonas aeruginosa; assay: microbe, parasite or virus in culture; conditions: ATCC 9027
Description: Antibacterial activity against Pseudomonas aeruginosa ATCC 9027 by agar-dilution method

[6] = test system: Bacillus subtilis; assay: microbe, parasite or virus in culture; conditions: ATCC 6633
Description: Antibacterial activity against Bacillus subtilis ATCC 6633 by agar-dilution method

[7] = test system: Staphylococcus aureus; assay: Antibacterial activity against methicillin-resistant Staphylococcus aureus 1 by agar-dilution method
[8] = test system: Staphylococcus aureus; assay: Antibacterial activity against methicillin-resistant Staphylococcus aureus 2 by agar-dilution method

Row | SMILES | MIC [1] [µg/mL] | MIC [2] [µg/mL] | MIC [3] [µg/mL] | MIC [4] [µg/mL] | MIC [5] [µg/mL] | MIC [6] [µg/mL] | MIC [7] [µg/mL] | MIC [8] [µg/mL]
1 | O=C(CN1CCN(c2cc3c(cc2F)c(=O)c(C(=O)O)cn3C2CC2)CC1)c1ccc(Cl)cc1 | 0.39 (≈ 0.806 µM) | 0.025 (≈ 0.0517 µM) | 0.195 (≈ 0.403 µM) | 0.013 (≈ 0.0269 µM) | 1.56 (≈ 3.22 µM) | 0.049 (≈ 0.101 µM) | 0.39 (≈ 0.806 µM) | 0.39 (≈ 0.806 µM)
2 | O=C(CN1CCN(c2cc3c(cc2F)c(=O)c(C(=O)O)cn3C2CC2)CC1)c1ccccc1Cl | 0.39 (≈ 0.806 µM) | 0.098 (≈ 0.203 µM) | 0.195 (≈ 0.403 µM) | 0.025 (≈ 0.0517 µM) | 6.25 (≈ 12.9 µM) | 0.049 (≈ 0.101 µM) | 0.39 (≈ 0.806 µM) | 0.39 (≈ 0.806 µM)
3 | CO/N=C(\CN1CCN(c2cc3c(cc2F)c(=O)c(C(=O)O)cn3C2CC2)CC1)c1ccc(Cl)cc1 | 0.78 (≈ 1.52 µM) | 1.56 (≈ 3.04 µM) | 0.39 (≈ 0.76 µM) | 0.78 (≈ 1.52 µM) | > 100 | 1.56 (≈ 3.04 µM) | 0.39 (≈ 0.76 µM) | 0.39 (≈ 0.76 µM)
4 | O=C(O)c1cn(C2CC2)c2cc(N3CCN(C/C(=N\O)c4ccccc4Cl)CC3)c(F)cc2c1=O | 0.39 (≈ 0.782 µM) | 0.78 (≈ 1.56 µM) | 0.195 (≈ 0.391 µM) | 0.025 (≈ 0.0501 µM) | 25 (≈ 50.1 µM) | 0.78 (≈ 1.56 µM) | 0.39 (≈ 0.782 µM) | 0.39 (≈ 0.782 µM)
5 | CCn1cc(C(=O)O)c(=O)c2cc(F)c(N3CCNCC3)cc21 [NORFLOXACIN] | 0.78 (≈ 2.44 µM) | 0.049 (≈ 0.153 µM) | 0.78 (≈ 2.44 µM) | 0.049 (≈ 0.153 µM) | 3.13 (≈ 9.8 µM) | 0.049 (≈ 0.153 µM) | 0.78 (≈ 2.44 µM) | 0.78 (≈ 2.44 µM)
6 | O=C(O)c1cn(C2CC2)c2cc(N3CCNCC3)c(F)cc2c1=O [CIPROFLOXACIN] | 0.39 (≈ 1.18 µM) | 0.025 (≈ 0.0754 µM) | 0.39 (≈ 1.18 µM) | 0.025 (≈ 0.0754 µM) | 0.78 (≈ 2.35 µM) | 0.025 (≈ 0.0754 µM) | 0.39 (≈ 1.18 µM) | 0.39 (≈ 1.18 µM)
7 | CO/N=C(\CN1CCN(c2cc3c(cc2F)c(=O)c(C(=O)O)cn3C2CC2)CC1)c1ccc(Cl)cc1Cl | 0.39 (≈ 0.712 µM) | 0.025 (≈ 0.0457 µM) | 0.39 (≈ 0.712 µM) | 0.012 (≈ 0.0219 µM) | 1.56 (≈ 2.85 µM) | 0.025 (≈ 0.0457 µM) | 0.39 (≈ 0.712 µM) | 0.39 (≈ 0.712 µM)
8 | O=C(O)c1cn(C2CC2)c2cc(N3CCN(C/C(=N\O)c4ccc(Cl)cc4)CC3)c(F)cc2c1=O | 0.39 (≈ 0.782 µM) | 0.78 (≈ 1.56 µM) | 0.195 (≈ 0.391 µM) | 0.049 (≈ 0.0982 µM) | 100 (≈ 200 µM) | 0.78 (≈ 1.56 µM) | 0.195 (≈ 0.391 µM) | 0.098 (≈ 0.196 µM)
9 | CO/N=C(\CN1CCN(c2cc3c(cc2F)c(=O)c(C(=O)O)cn3C2CC2)CC1)c1ccccc1Cl | 0.39 (≈ 0.76 µM) | 0.025 (≈ 0.0487 µM) | 0.195 (≈ 0.38 µM) | 0.013 (≈ 0.0253 µM) | 6.25 (≈ 12.2 µM) | 0.049 (≈ 0.0955 µM) | 0.39 (≈ 0.76 µM) | 0.39 (≈ 0.76 µM)
10 | CCn1cc(C(=O)O)c(=O)c2cc(F)c(N3CCNCC3)nc21 [ENOXACIN] | 1.56 (≈ 4.87 µM) | 0.098 (≈ 0.306 µM) | 0.78 (≈ 2.44 µM) | 0.098 (≈ 0.306 µM) | 6.25 (≈ 19.5 µM) | 0.098 (≈ 0.306 µM) |  | 

Further lines, with some results ahead:

Row | MIC [1] [µg/mL] | MIC [2] [µg/mL] | MIC [3] [µg/mL] | MIC [4] [µg/mL] | MIC [5] [µg/mL] | MIC [6] [µg/mL] | SMILES | MIC [7] [µg/mL] | MIC [8] [µg/mL]
11 | 25 (≈ 49.7 µM) | 50 (≈ 99.3 µM) | 25 (≈ 49.7 µM) | 25 (≈ 49.7 µM) | > 100 | 1.56 (≈ 3.1 µM) | CCn1cc(C(=O)O)c(=O)c2cc(F)c(N3CCN(C/C(=N\OC)c4ccc(F)cc4F)CC3)nc21 |  | 
12 | 6.25 (≈ 12.6 µM) | 3.13 (≈ 6.3 µM) | 6.25 (≈ 12.6 µM) | 3.13 (≈ 6.3 µM) | 50 (≈ 101 µM) | 6.25 (≈ 12.6 µM) | CO/N=C(\CN1CCN(c2cc3c(cc2F)c(=O)c(C(=O)O)cn3C2CC2)CC1)c1ccc(F)cc1 |  | 
13 | 25 (≈ 46.6 µM) | 12.5 (≈ 23.3 µM) | 25 (≈ 46.6 µM) | 6.25 (≈ 11.7 µM) | 50 (≈ 93.2 µM) | 12.5 (≈ 23.3 µM) | CCn1cc(C(=O)O)c(=O)c2cc(F)c(N3CCN(C/C(=N\OC)c4ccc(Cl)cc4Cl)CC3)nc21 |  | 
14 | 6.25 (≈ 12.9 µM) | 3.13 (≈ 6.46 µM) | 1.56 (≈ 3.22 µM) | 0.78 (≈ 1.61 µM) | 100 (≈ 206 µM) | 3.13 (≈ 6.46 µM) | CCn1cc(C(=O)O)c(=O)c2cc(F)c(N3CCN(C/C(=N\OC)c4ccc(F)cc4)CC3)cc21 |  | 
15 | 6.25 (≈ 12.1 µM) | 1.56 (≈ 3.03 µM) | 6.25 (≈ 12.1 µM) | 0.78 (≈ 1.52 µM) | 12.5 (≈ 24.3 µM) | 0.78 (≈ 1.52 µM) | CO/N=C(\CN1CCN(c2cc3c(cc2F)c(=O)c(C(=O)O)cn3C2CC2)CC1)c1ccc(F)cc1F |  | 
16 | 12.5 (≈ 25.7 µM) | 6.25 (≈ 12.9 µM) | 6.25 (≈ 12.9 µM) | 1.56 (≈ 3.21 µM) | 100 (≈ 206 µM) | 6.25 (≈ 12.9 µM) | CCn1cc(C(=O)O)c(=O)c2cc(F)c(N3CCN(C/C(=N\OC)c4ccc(F)cc4)CC3)nc21 |  | 
17 | 12.5 (≈ 26.1 µM) | 6.25 (≈ 13.1 µM) | 12.5 (≈ 26.1 µM) | 3.13 (≈ 6.54 µM) | 100 (≈ 209 µM) | 6.25 (≈ 13.1 µM) | CO/N=C(\CN1CCN(c2cc3c(cc2F)c(=O)c(C(=O)O)cn3C2CC2)CC1)c1ccccc1 |  | 
18 | 25 (≈ 53.5 µM) | 12.5 (≈ 26.7 µM) | 25 (≈ 53.5 µM) | 12.5 (≈ 26.7 µM) | > 100 | 12.5 (≈ 26.7 µM) | CCn1cc(C(=O)O)c(=O)c2cc(F)c(N3CCN(C/C(=N\OC)c4ccccc4)CC3)nc21 |  | 
19 | 25 (≈ 53.6 µM) | 12.5 (≈ 26.8 µM) | 25 (≈ 53.6 µM) | 12.5 (≈ 26.8 µM) | > 100 | 6.25 (≈ 13.4 µM) | CCn1cc(C(=O)O)c(=O)c2cc(F)c(N3CCN(C/C(=N\OC)c4ccccc4)CC3)cc21 |  | 
20 | 12.5 (≈ 24.9 µM) | 25 (≈ 49.8 µM) | 12.5 (≈ 24.9 µM) | 12.5 (≈ 24.9 µM) | > 100 | 1.56 (≈ 3.1 µM) | CCn1cc(C(=O)O)c(=O)c2cc(F)c(N3CCN(C/C(=N\OC)c4ccc(F)cc4F)CC3)cc21 |  | 
21 | 12.5 (≈ 23.3 µM) | 12.5 (≈ 23.3 µM) | 12.5 (≈ 23.3 µM) | 6.25 (≈ 11.7 µM) | > 100 | 12.5 (≈ 23.3 µM) | CCn1cc(C(=O)O)c(=O)c2cc(F)c(N3CCN(C/C(=N\OC)c4ccc(Cl)cc4Cl)CC3)cc21 |  | 
